Reference: ChEMBL document CHEMBL3399937, “(18)F-AmBF3-MJ9: a novel radiofluorinated bombesin derivative for prostate cancer imaging” (Bioorg Med Chem, 2015)

Assays:
Conditions in all cases: in vivo
Kidney [1] = assay: Biodistribution in kidney of NSG mouse xenografted with human PC-3 tumor at 0.37 to 0.74 MBq, iv after 1 hr by gamma counting analysis; type: ADME, organism-based
Lung [2] = assay: Biodistribution in lung of NSG mouse xenografted with human PC-3 tumor at 0.37 to 0.74 MBq, iv after 0.5 hrs by gamma counting analysis; type: ADME, organism-based
Bone [3] = assay: Biodistribution in bone of NSG mouse xenografted with human PC-3 tumor at 0.37 to 0.74 MBq, iv after 2 hrs by gamma counting analysis; type: ADME, organism-based, Bone element
Mus musculus [4] = assay: Biodistribution in seminal gland of NSG mouse xenografted with human PC-3 tumor at 0.37 to 0.74 MBq, iv after 2 hrs by gamma counting analysis; type: ADME, organism-based
Mus musculus [5] = assay: Biodistribution in testis of NSG mouse xenografted with human PC-3 tumor at 0.37 to 0.74 MBq, iv after 1 hr by gamma counting analysis in presence of BAY86-7548; type: ADME, organism-based
Heart [6] = assay: Biodistribution in heart of NSG mouse xenografted with human PC-3 tumor at 0.37 to 0.74 MBq, iv after 1 hr by gamma counting analysis; type: ADME, organism-based
Liver [7] = assay: Biodistribution in liver of NSG mouse xenografted with human PC-3 tumor at 0.37 to 0.74 MBq, iv after 1 hr by gamma counting analysis; type: ADME, organism-based
Mus musculus [8] = assay: Biodistribution in testis of NSG mouse xenografted with human PC-3 tumor at 0.37 to 0.74 MBq, iv after 1 hr by gamma counting analysis; type: ADME, organism-based
Intestine [9] = assay: Biodistribution in intestine of NSG mouse xenografted with human PC-3 tumor at 0.37 to 0.74 MBq, iv after 1 hr by gamma counting analysis in presence of BAY86-7548; type: ADME, organism-based
[10] = Biodistribution in fat of NSG mouse xenografted with human PC-3 tumor at 0.37 to 0.74 MBq, iv after 1 hr by gamma counting analysis in presence of BAY86-7548; type: ADME, organism-based, Adipose tissue
Mus musculus [11] = assay: Biodistribution in testis of NSG mouse xenografted with human PC-3 tumor at 0.37 to 0.74 MBq, iv after 0.5 hrs by gamma counting analysis; type: ADME, organism-based
Brain [12] = assay: Biodistribution in brain of NSG mouse xenografted with human PC-3 tumor at 0.37 to 0.74 MBq, iv after 0.5 hrs by gamma counting analysis; type: ADME, organism-based
Muscle tissue = assay: Biodistribution in muscle of NSG mouse xenografted with human PC-3 tumor at 0.37 to 0.74 MBq, iv after 1 hr by gamma counting analysis; type: ADME, organism-based
Spleen [13] = assay: Biodistribution in spleen of NSG mouse xenografted with human PC-3 tumor at 0.37 to 0.74 MBq, iv after 1 hr by gamma counting analysis in presence of BAY86-7548; type: ADME, organism-based
Bone [14] = assay: Biodistribution in bone of NSG mouse xenografted with human PC-3 tumor at 0.37 to 0.74 MBq, iv after 0.5 hrs by gamma counting analysis; type: ADME, organism-based, Bone element
Kidney [15] = assay: Biodistribution in kidney of NSG mouse xenografted with human PC-3 tumor at 0.37 to 0.74 MBq, iv after 2 hrs by gamma counting analysis; type: ADME, organism-based
Mus musculus [16] = assay: Biodistribution in seminal gland of NSG mouse xenografted with human PC-3 tumor at 0.37 to 0.74 MBq, iv after 1 hr by gamma counting analysis in presence of BAY86-7548; type: ADME, organism-based
Brain [17] = assay: Biodistribution in brain of NSG mouse xenografted with human PC-3 tumor at 0.37 to 0.74 MBq, iv after 2 hrs by gamma counting analysis; type: ADME, organism-based
Lung [18] = assay: Biodistribution in lung of NSG mouse xenografted with human PC-3 tumor at 0.37 to 0.74 MBq, iv after 1 hr by gamma counting analysis in presence of BAY86-7548; type: ADME, organism-based
Pancreas = assay: Biodistribution in pancreas of NSG mouse xenografted with human PC-3 tumor at 0.37 to 0.74 MBq, iv after 0.5 hrs by gamma counting analysis; type: ADME, organism-based
Spleen [19] = assay: Biodistribution in spleen of NSG mouse xenografted with human PC-3 tumor at 0.37 to 0.74 MBq, iv after 0.5 hrs by gamma counting analysis; type: ADME, organism-based
Mus musculus [20] = assay: Biodistribution in adrenal gland of NSG mouse xenografted with human PC-3 tumor at 0.37 to 0.74 MBq, iv after 0.5 hrs by gamma counting analysis; type: ADME, organism-based
Liver [21] = assay: Biodistribution in liver of NSG mouse xenografted with human PC-3 tumor at 0.37 to 0.74 MBq, iv after 0.5 hrs by gamma counting analysis; type: ADME, organism-based
Intestine [22] = assay: Biodistribution in intestine of NSG mouse xenografted with human PC-3 tumor at 0.37 to 0.74 MBq, iv after 0.5 hrs by gamma counting analysis; type: ADME, organism-based
Intestine [23] = assay: Biodistribution in intestine of NSG mouse xenografted with human PC-3 tumor at 0.37 to 0.74 MBq, iv after 2 hrs by gamma counting analysis; type: ADME, organism-based
Bone [24] = assay: Biodistribution in bone of NSG mouse xenografted with human PC-3 tumor at 0.37 to 0.74 MBq, iv after 1 hr by gamma counting analysis in presence of BAY86-7548; type: ADME, organism-based, Bone element
Blood = assay: Biodistribution in blood of NSG mouse xenografted with human PC-3 tumor at 0.37 to 0.74 MBq, iv after 1 hr by gamma counting analysis; type: ADME, organism-based
Kidney [25] = assay: Biodistribution in kidney of NSG mouse xenografted with human PC-3 tumor at 0.37 to 0.74 MBq, iv after 0.5 hrs by gamma counting analysis; type: ADME, organism-based
[26] = Biodistribution in fat of NSG mouse xenografted with human PC-3 tumor at 0.37 to 0.74 MBq, iv after 0.5 hrs by gamma counting analysis; type: ADME, organism-based, Adipose tissue
Intestine [27] = assay: Biodistribution in intestine of NSG mouse xenografted with human PC-3 tumor at 0.37 to 0.74 MBq, iv after 1 hr by gamma counting analysis; type: ADME, organism-based
Heart [28] = assay: Biodistribution in heart of NSG mouse xenografted with human PC-3 tumor at 0.37 to 0.74 MBq, iv after 2 hrs by gamma counting analysis; type: ADME, organism-based
Tumour = assay: Biodistribution in tumor of NSG mouse xenografted with human PC-3 tumor at 0.37 to 0.74 MBq, iv after 0.5 hrs by gamma counting analysis; type: ADME, organism-based, Neoplasm
[29] = Biodistribution in fat of NSG mouse xenografted with human PC-3 tumor at 0.37 to 0.74 MBq, iv after 2 hrs by gamma counting analysis; type: ADME, organism-based, Adipose tissue

Drug uptake (Kidney [1]): 2.43 % ID/g
Drug uptake (Lung [2]): 1.96 % ID/g
Drug uptake (Bone [3]): 0.18 % ID/g
Drug uptake (Mus musculus [4]): 0.15 % ID/g
Drug uptake (Mus musculus [5]): 0.25 % ID/g
Drug uptake (Heart [6]): 0.13 % ID/g
Drug uptake (Liver [7]): 0.78 % ID/g
Drug uptake (Mus musculus [8]): 0.25 % ID/g
Drug uptake (Intestine [9]): 0.25 % ID/g
Drug uptake [10]: 0.12 % ID/g
Drug uptake (Mus musculus [11]): 0.42 % ID/g
Drug uptake (Brain [12]): 0.07 % ID/g
Drug uptake (Muscle tissue): 0.07 % ID/g
Drug uptake (Spleen [13]): 0.32 % ID/g
Drug uptake (Bone [14]): 0.7 % ID/g
Drug uptake (Kidney [15]): 1.46 % ID/g
Drug uptake (Mus musculus [16]): 0.12 % ID/g
Drug uptake (Brain [17]): 0.01 % ID/g
Drug uptake (Lung [18]): 0.71 % ID/g
Drug uptake (Pancreas): 8.04 % ID/g
Drug uptake (Spleen [19]): 1.08 % ID/g
Drug uptake (Mus musculus [20]): 1.16 % ID/g
Drug uptake (Liver [21]): 2.63 % ID/g
Drug uptake (Intestine [22]): 4.28 % ID/g
Drug uptake (Intestine [23]): 8.67 % ID/g
Drug uptake (Bone [24]): 0.25 % ID/g
Drug uptake (Blood): 0.57 % ID/g
Drug uptake (Kidney [25]): 6.6 % ID/g
Drug uptake [26]: 0.25 % ID/g
Drug uptake (Intestine [27]): 6.3 % ID/g
Drug uptake (Heart [28]): 0.06 % ID/g
Drug uptake (Tumour): 2.77 % ID/g
Drug uptake [29]: 0.05 % ID/g
Structure (SMILES): CC(C)C[C@H](NC(=O)C[C@H](O)[C@H](CC(C)C)NC(=O)[C@H](Cc1cnc[nH]1)NC(=O)CNC(=O)[C@@H](NC(=O)[C@H](C)NC(=O)[C@H](Cc1c[nH]c2ccccc12)NC(=O)[C@H](CCC(N)=O)NC(=O)[C@@H](Cc1ccccc1)NC(=O)CN1CCC(NC(=O)Cn2cc(C[N+](C)(C)C[B-](F)(F)[17F])nn2)CC1)C(C)C)C(N)=O
